Measurements as given in the NIST ThermoML archive (doi:10.1021/je901071x).

Legend:
[1] = xn = mol fraction of the nth substance listed; conditions: 101 kPa, Liquid; for viscosity: Capillary tube (Ostwald / Ubbelohde) method; for mass density: Vibrating tube method
[2] = 101 kPa, Liquid; for viscosity: Capillary tube (Ostwald / Ubbelohde) method; for mass density: Vibrating tube method

c1ccccc1 [benzene] + CCCOC=O
[1], x2 = 0
Conditions | mass density [kg/m3] | viscosity [mPa·s]
303.15 K | 867.6 | 0.569
308.15 K | 863.2 | 0.534
313.15 K | 858.9 | 0.497

CC(C)c1ccccc1 [isopropylbenzene]
[2]
Conditions | mass density [kg/m3] | viscosity [mPa·s]
303.15 K | 852.7 | 0.69
308.15 K | 849 | 0.651
313.15 K | 845.4 | 0.611

CCCOC=O [propyl methanoate]
[2]
Conditions | mass density [kg/m3] | viscosity [mPa·s]
303.15 K | 893.5 | 0.477
308.15 K | 888.6 | 0.456
313.15 K | 883.8 | 0.431

CCCCc1ccccc1 [butylbenzene] + CCCOC=O
[1], x2 = 0
Conditions | mass density [kg/m3] | viscosity [mPa·s]
303.15 K | 851.3 | 0.901
308.15 K | 848 | 0.844
313.15 K | 844.6 | 0.787

c1ccccc1 [benzene]
[2]
Conditions | mass density [kg/m3] | viscosity [mPa·s]
303.15 K | 867.6 | 0.569
308.15 K | 863.2 | 0.534
313.15 K | 858.9 | 0.497

CC(C)Cc1ccccc1 [(2-methylpropyl)benzene]
[2]
Conditions | mass density [kg/m3] | viscosity [mPa·s]
303.15 K | 844.4 | 0.905
308.15 K | 841.1 | 0.848
313.15 K | 837.6 | 0.784

CCCCc1ccccc1 [butylbenzene]
[2]
Conditions | mass density [kg/m3] | viscosity [mPa·s]
303.15 K | 851.3 | 0.901
308.15 K | 848 | 0.844
313.15 K | 844.6 | 0.787

CCCOC=O [propyl methanoate] + CC(C)c1ccccc1
[1]
Conditions | mass density, 303.15 K [kg/m3] | mass density, 308.15 K [kg/m3] | mass density, 313.15 K [kg/m3] | viscosity, 303.15 K [mPa·s] | viscosity, 308.15 K [mPa·s] | viscosity, 313.15 K [mPa·s]
x1 = 0.1349 | 856 | 852.1 | 848.2 | 0.652 | 0.617 | 0.58
x1 = 0.2617 | 859.5 | 855.4 | 851.4 | 0.617 | 0.585 | 0.551
x1 = 0.3812 | 863.3 | 859.1 | 855 | 0.585 | 0.557 | 0.526
x1 = 0.487 | 867.1 | 862.7 | 858.5 | 0.559 | 0.533 | 0.504
x1 = 0.5882 | 871 | 866.5 | 862.2 | 0.537 | 0.513 | 0.485
x1 = 0.6817 | 875.1 | 870.4 | 866 | 0.517 | 0.495 | 0.468
x1 = 0.7675 | 879.2 | 874.4 | 869.8 | 0.506 | 0.485 | 0.459
x1 = 0.8499 | 883.5 | 878.6 | 873.9 | 0.494 | 0.474 | 0.448
x1 = 0.9277 | 888.1 | 883 | 878.2 | 0.484 | 0.464 | 0.439
x1 = 1 | 893.5 | 888.6 | 883.8 | 0.477 | 0.456 | 0.431

CCCOC=O [propyl methanoate] + c1ccccc1
[1]
Conditions | mass density, 303.15 K [kg/m3] | mass density, 308.15 K [kg/m3] | mass density, 313.15 K [kg/m3] | viscosity, 303.15 K [mPa·s] | viscosity, 308.15 K [mPa·s] | viscosity, 313.15 K [mPa·s]
x1 = 0.0918 | 869.6 | 865.1 | 860.6 | 0.54 | 0.512 | 0.479
x1 = 0.1874 | 871.4 | 866.8 | 862.3 | 0.518 | 0.49 | 0.462
x1 = 0.2822 | 873.6 | 868.9 | 864.3 | 0.504 | 0.476 | 0.448
x1 = 0.3785 | 875.8 | 871.1 | 866.5 | 0.49 | 0.466 | 0.437
x1 = 0.4767 | 878.2 | 873.4 | 868.7 | 0.48 | 0.456 | 0.431
x1 = 0.5772 | 880.6 | 875.8 | 871.1 | 0.474 | 0.449 | 0.425
x1 = 0.6802 | 883.4 | 878.5 | 873.7 | 0.471 | 0.451 | 0.426
x1 = 0.7854 | 886.2 | 881.3 | 876.5 | 0.469 | 0.448 | 0.423
x1 = 0.8924 | 889.4 | 884.4 | 879.5 | 0.467 | 0.446 | 0.421
x1 = 1 | 893.5 | 888.6 | 883.8 | 0.477 | 0.456 | 0.431

CC(C)c1ccccc1 [isopropylbenzene] + CCCOC=O
[1], x2 = 0
Conditions | mass density [kg/m3] | viscosity [mPa·s]
303.15 K | 852.7 | 0.69
308.15 K | 849 | 0.651
313.15 K | 845.4 | 0.611

CCCOC=O [propyl methanoate] + CCCCc1ccccc1
[1]
Conditions | mass density, 303.15 K [kg/m3] | mass density, 308.15 K [kg/m3] | mass density, 313.15 K [kg/m3] | viscosity, 303.15 K [mPa·s] | viscosity, 308.15 K [mPa·s] | viscosity, 313.15 K [mPa·s]
x1 = 0.1483 | 854.7 | 851 | 847.3 | 0.823 | 0.772 | 0.723
x1 = 0.2855 | 858.4 | 854.6 | 850.7 | 0.753 | 0.71 | 0.667
x1 = 0.4066 | 862.2 | 858.2 | 854.3 | 0.696 | 0.658 | 0.619
x1 = 0.5164 | 866.2 | 862.1 | 858 | 0.649 | 0.616 | 0.58
x1 = 0.6148 | 870.3 | 866 | 861.8 | 0.609 | 0.579 | 0.546
x1 = 0.7042 | 874.5 | 870.1 | 865.8 | 0.575 | 0.547 | 0.517
x1 = 0.7884 | 879.1 | 874.5 | 869.9 | 0.545 | 0.52 | 0.491
x1 = 0.8642 | 883.8 | 879 | 874.2 | 0.519 | 0.497 | 0.47
x1 = 0.9339 | 888.6 | 883.7 | 878.7 | 0.498 | 0.476 | 0.451
x1 = 1 | 893.5 | 888.6 | 883.8 | 0.477 | 0.456 | 0.431

CC(C)Cc1ccccc1 [(2-methylpropyl)benzene] + CCCOC=O
[1]
Conditions | mass density, 303.15 K [kg/m3] | mass density, 308.15 K [kg/m3] | mass density, 313.15 K [kg/m3] | viscosity, 303.15 K [mPa·s] | viscosity, 308.15 K [mPa·s] | viscosity, 313.15 K [mPa·s]
x2 = 0 | 844.4 | 841.1 | 837.6 | 0.905 | 0.848 | 0.784
x2 = 0.1508 | 848.8 | 845.2 | 841.4 | 0.813 | 0.771 | 0.718
x2 = 0.287 | 853.3 | 849.5 | 845.6 | 0.743 | 0.706 | 0.661
x2 = 0.4072 | 857.9 | 854 | 850 | 0.687 | 0.654 | 0.614
x2 = 0.519 | 862.9 | 858.7 | 854.5 | 0.64 | 0.61 | 0.575
x2 = 0.6161 | 867.7 | 863.4 | 859.1 | 0.602 | 0.575 | 0.543
x2 = 0.708 | 872.9 | 868.5 | 864 | 0.569 | 0.544 | 0.515
x2 = 0.7895 | 878 | 873.4 | 868.8 | 0.54 | 0.519 | 0.492
x2 = 0.8656 | 883.2 | 878.4 | 873.7 | 0.516 | 0.497 | 0.471
x2 = 0.9341 | 888.3 | 883.4 | 878.6 | 0.495 | 0.476 | 0.451

CCCOC=O [propyl methanoate] + CC(C)Cc1ccccc1
[1], x1 = 1
Conditions | mass density [kg/m3] | viscosity [mPa·s]
303.15 K | 893.5 | 0.477
308.15 K | 888.6 | 0.456
313.15 K | 883.8 | 0.431
